# Measured values as given in PubChem BioAssay AID179 (DTP/NCI, 2004).
# The source made the active and inactive calls.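 How the source made its calls: active means compounds giving half or more protection of infected cells from virus-caused growth loss, again on retest; inactive means the rest.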
# Tested on: CEM cells HIV-1 protection, formazan growth assay
# Assay: NCI AIDS Antiviral Assay
# Settings: for IC50: measured here: growth of uninfected CEM cells
# Outline: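 Category rules: moderately active means at least 50% protection on retest, and confirmed active means 100% protection reproducibly. The underlying data came from a formazan growth assay in HIV-1-infected CEM cells.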
SMILES,EC50 [µM],IC50 [µM],outcome
Nc1nc(N)nc(-c2ccccc2-c2nc(N)nc(N)n2)n1,> 200,> 200,–
CCC(C#N)N(Cc1ccc(CN(C(=O)c2ccccc2)C(C#N)CC)cc1)C(=O)c1ccccc1 (stereo not given),> 200,8.71,–
O=NN(CC1(O)OCC(O)C(O)C1O)C(Cc1c[nH]c2ccccc12)C(=O)O (stereo not given),–,–,inactive
COC(=O)[C@]12CSC[C@H]1C[C@H](c1cccc3ccccc13)N2,> 200,> 200,–
NC(CO)Cc1cnc[nH]1 (stereo not given),> 200,> 200,–
CC(C)(C)c1ccc(SS(=O)(=O)c2ccc(C(C)(C)C)cc2)cc1,20,22.9,–
NC1=NN(c2ccccc2)C(=O)C1C(=O)CCC(=O)Nc1cccc(C(F)(F)F)c1 (stereo not given),> 427,407,–
Cc1noc(NS(=O)(=O)c2ccc(NC(=S)/N=C/C(C(=O)c3ccccc3)=C(\O)c3ccccc3)cc2)c1C,> 200,120,–
O=[N+]([O-])c1cc(Br)cc2c1[nH]c1nc3ccc(C(F)(F)F)cc3nc12,> 45.7,8.32,–
CC(=O)Nc1ccc(NC(=O)CC(=O)Nc2ccc(NC(C)=O)cc2)cc1,> 200,> 200,–
NP(N)(=O)NC(=O)c1ccc(F)cc1,> 200,> 200,–
COc1cc(C2C(=O)C(Cl)N2Nc2nc(C)cc(=O)[nH]2)cc(OC)c1OC (stereo not given),> 66.1,9.77,–
O=C(/C=C/c1ccc(OCc2ccccc2)c(OCc2ccccc2)c1)OCc1ccccc1,> 200,> 200,–
Cc1c(C)c(CC(C)(COS(C)(=O)=O)COS(C)(=O)=O)c(C)c(C)c1CC(C)(COS(C)(=O)=O)COS(C)(=O)=O,> 20.9,> 20.9,–
N#Cc1cccc(C2C(=O)c3ccc(C(=O)c4ccc5c(c4)C(=O)N(c4ccc(Oc6ccc(N7C(=O)c8ccc(C(=O)c9ccc%10c(c9)C(=O)N(c9cccc(C#N)c9)C%10=O)cc8C7=O)cc6)cc4)C5=O)cc3C2=O)c1 (stereo not given),> 3.47,> 3.47,–
COc1cc(OC)cc(-n2c(N)c(-c3nc4ccccc4s3)c3ccc([N+](=O)[O-])cc3c2=O)c1,> 200,148,–
O=C1c2ccccc2C(=O)N1/N=C\c1ccc([N+](=O)[O-])cc1,> 24.5,> 24.5,–

SMILES,EC50 [µM],IC50 [µM],outcome
C[Si](C)(C)CCCS(=O)(=O)O,> 200,> 200,–
Oc1ccc(N=C2N=c3c(c4ccccc4c4ccccc34)=N2)c2ccccc12,> 200,4.57,–
C/C(=N\NC(=O)CC(=O)Nc1ccccc1Cl)c1cc2cc(N=Nc3ccccc3Cl)ccc2oc1=O,> 18.6,> 18.6,–
O=P(Nc1ccc(Cl)cc1)(Oc1ccccc1)N(CCCl)CCCl (stereo not given),> 17.8,8.71,–
O=C1Nc2ccc(Br)cc2/C1=c1/sc2nc3ccccc3n2c1=O,> 50.1,42.7,–
Cc1nn2c(=O)c3c([N+](=O)[O-])c(C)nn3c(=O)c2c1[N+](=O)[O-],> 562,> 562,–
CN(/N=C\c1ccc2ccccc2c1)C1=NCCN1,> 200,22.9,–
O=[N+]([O-])c1ccc(C2OCC3CSCN32)cc1 (stereo not given),> 39.8,> 39.8,–
COc1cc(/C=C/c2csnn2)cc(OC)c1OC,> 468,117,–
COC(=O)C1C2C=CC(C2)C1(C(=O)OC)S(=O)CC12CCC(CC1O)C2(C)C (stereo not given),> 229,> 229,–
O=C(O)C(C(C(=O)O)P(=O)(O)O)P(=O)(O)O (stereo not given),> 200,> 200,–
CC1(C)C(C#N)C1C1=C(N2CCOCC2)[C@]2(C)C(OC(=O)c3ccccc3)CC[C@@H]2C1 (stereo not given in full),> 50.1,38.9,–
COC1CN(C)C(=Nc2cccc3ccccc23)S1 (stereo not given),> 200,112,–
COc1ccc(CCc2cc(OC)c(O)c(OC)c2)cc1,> 200,10.5,–
COC(=O)N/N=C(\Cc1ccccc1)CN(C)C,> 200,> 200,–
Cc1ccc(NC(=S)NNC(=O)c2cc(-c3ccccc3)nc3ccccc23)cc1C,> 200,12.6,–
